This is an account of results in patent US12194051B2, “5-azaindazole derivatives as adenosine receptor antagonists” (MERCK PATENT GMBH, priority 2018, dated 2025).

pIC50: −log10 of the molar value. Some results are limits rather than exact numbers.

Holding throughout (type): cell-based
For one experiment, the target named is T1, human A2A receptors (Homo sapiens, UniProt P29274).
T1 construct: expressed in transfected cells; host or cells: HEK293
The experiment is described as follows: Inhibition of human A2A receptor in recombinant HEK293 cells, cAMP quantification (HTRF). The settings on record: read-out: A2A (Category). The procedure, abridged:
(§1)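 15 min incubation → HTRF cAMP reagents added → cellular cAMP read on plate reader. cAMP serves as adenosine receptor second messenger.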
(TR-FRET usually uses a lanthanide donor and a delayed reading to cut background.)

Another experiment concerns the target T2, human A2B receptors (Homo sapiens, UniProt P29275).
T2 construct: expressed in transfected cells; host or cells: HEK293
T2 sequence (P29275 1-332): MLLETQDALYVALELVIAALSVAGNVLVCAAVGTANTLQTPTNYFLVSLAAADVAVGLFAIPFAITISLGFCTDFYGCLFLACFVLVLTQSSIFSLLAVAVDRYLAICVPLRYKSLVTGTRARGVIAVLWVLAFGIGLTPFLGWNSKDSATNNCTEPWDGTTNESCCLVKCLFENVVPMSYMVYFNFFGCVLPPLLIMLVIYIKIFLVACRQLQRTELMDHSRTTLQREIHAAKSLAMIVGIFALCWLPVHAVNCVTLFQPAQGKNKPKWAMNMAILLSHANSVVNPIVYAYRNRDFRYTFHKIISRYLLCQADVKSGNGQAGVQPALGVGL
As to the kind of experiment: Inhibition of human A2B receptor in recombinant HEK293 cells, cAMP quantification (HTRF). The note with it: read-out: A2B (Category). The procedure, abridged: as §1

The target of experiment [1] is T3, endogenous human A2A receptor (Homo sapiens, UniProt P29274).
T3 construct: The endogenous functional activity of the Gs-coupled human A2A receptor was measured in T cells; endogenous in cells; host or cells: human pan T cells isolated from PBMC of fresh whole blood
T3 sequence (P29274 whole entry): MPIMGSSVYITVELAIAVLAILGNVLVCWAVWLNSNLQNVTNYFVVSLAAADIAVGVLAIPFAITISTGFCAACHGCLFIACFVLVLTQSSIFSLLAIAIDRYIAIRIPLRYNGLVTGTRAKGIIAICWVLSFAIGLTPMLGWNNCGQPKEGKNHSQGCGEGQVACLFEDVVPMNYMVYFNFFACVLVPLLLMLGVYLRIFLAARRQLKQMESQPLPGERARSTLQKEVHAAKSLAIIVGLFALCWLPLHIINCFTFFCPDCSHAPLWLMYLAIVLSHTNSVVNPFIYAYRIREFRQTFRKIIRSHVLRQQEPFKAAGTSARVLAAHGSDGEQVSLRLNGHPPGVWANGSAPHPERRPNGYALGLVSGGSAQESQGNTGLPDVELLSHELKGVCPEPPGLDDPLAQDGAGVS
The experiment is described as follows: Human T cell assay, endogenous A2A receptor, cAMP quantification. The protocol: The endogenous functional activity of the Gs-coupled human A2A receptor was measured in T cells, where this receptor is highly expressed. Determination of receptor activity was done by quantification of cAMP, which is a second messenger for adenosine receptors.
In short, human pan T cells were isolated from human PBMC (MACS Pan T Cell Isolation Kit, Miltenyi Biotec) that have been derived from fresh whole blood. The T cells were seeded in 384-well microtiter plates and treated with test compounds. […] Finally, HTRF reagents (cAMP Femto Kit, CisBio) were added to the wells, and after 1 h cellular cAMP levels were determined using the ENVISION (Perkin Elmer) plate reader.
The obtained raw data were normalized against the inhibitor control and the neutral control (DMSO) and the normalized data were fitted using Genedata Screener software.

The next experiment concerns Human T cell. The experiment is described as follows: Human T cell IL-2. The settings on record: human T cells.
Another experiment relates to mouse Pan T cells. As to the kind of experiment: Mouse T cell IL-2 rescue from NECA inhibition (ELISA). The settings on record: 24 h. From the text: Adenosine (Ado) in tumor microenvironment can inhibit T cell activity by signaling through A2A receptors and suppress cytokine secretion by T cells. […] Potential A2A antagonists or A2A/A2B dual antagonists can rescue T cells from this inhibition. Herein, we describe the in vitro system we established using Pan T cells from mouse spleens to screen potential A2A antagonists or A2A/A2B dual antagonists for their activity. The method described involves the use of CD3/CD28 pre-coated beads to stimulate Pan T cells purified from mouse splenocytes, combined with the addition of A2A agonist along with potential A2A or A2A/A2B dual antagonists to evaluate potentiation of T cell cytokine production.
Briefly, mouse Pan T cells are purified from spleens of BALB/c mice using Pan T cell isolation kit Mouse II (MACS Miltenyi biotech Cat # Order no. 130-095-130) according to manufacturer's protocol. […] After 24 h incubation IL-2 levels in the supernatants are measured by ELISAs according to manufacturer's protocol (R&D systems Cat # DY402 (IL-2)). Once the concentrations are calculated, the difference of cytokine concentration of DMSO control and agonist alone control is calculated and the percentage of rescue by each concentration of antagonist is calculated by using Microsoft Excel. […]
On the technique in general: An ELISA detects its analyte on a solid surface through an enzyme-linked reagent.

T1 sequence (P29274 whole entry): as above

Take `CC1(O)CCN(C(=O)c2cc3c(cn2)c(Nc2cc(F)ccn2)nn3CC(F)(F)F)CC1` [Compound 112, [3-(4-Fluoro-pyridin-2-ylamino)-1-(2,2,2-trifluoro-ethyl)-1H-pyrazolo[4,3-c]pyridin-6-yl]-(4-hydroxy-4-methyl-piperidin-1-yl)-methanone]: the pIC50 at human A2A receptors and on human A2B receptors was greater than 7.00 in each case.

In the case of `[2H]C1([2H])COCCN(C(=O)c2cc3c(cn2)c(Nc2cc(F)ccn2)nn3CC(F)(F)F)C1` [Compound 60, (6,6-dideuterio-1,4-oxazepan-4-yl)-[3-[(4-fluoro-2-pyridyl)amino]-1-(2,2,2-trifluoroethyl)pyrazolo[4,3-c]pyridin-6-yl]methanone], the pIC50 at human A2A receptors and at human A2B receptors was greater than 7.00 each time.

`O=C(c1cc2c(cn1)c(Nc1ccc(F)cc1)nn2CC(F)(F)F)N1CCCOCC1` [Compound 10, [3-(4-fluoroanilino)-1-(2,2,2-trifluoroethyl)pyrazolo[4,3-c]pyridin-6-yl]-(1,4-oxazepan-4-yl)methanone]: the pIC50 was greater than 7.00 at human A2A receptors; greater than 7.00 on human A2B receptors; greater than 7.00 in experiment [1]; greater than 7.00 in the experiment on Human T cell; greater than 6.00 with mouse Pan T cells.

In the case of `O=C(c1cc2c(cn1)c(Nc1cnccn1)nn2CC(F)(F)F)N1CCOC[C@@H](F)C1` [Compound 122, [(6S)-6-fluoro-1,4-oxazepan-4-yl]-[3-(pyrazin-2ylamino)-1-(2,2,2-trifluoro-ethyl)-1H-pyrazolo[4,3-c]pyridin-6-yl]-methanone], the pIC50 on human A2A receptors and on human A2B receptors was greater than 7.00 in each case.
